# Measured values: US6737383B1, “Herbicidal oxadiazolidines” (priority 1999, dated 2004)
# Tests used:
# [1] = test system: bedstraw; assay: Test B pre/postemergence bedstraw; type: in vivo, Galium aparine
# Procedure, shortened: (§1)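 Herbicidal effect was estimated by eye on a ten-point control scale after plants spent twelve to sixteen days in a greenhouse following soil or foliar treatment. Foliar sprays targeted plants at one to four leaves; all doses were formulated in a non-phytotoxic solvent with surfactant.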
# [2] = test system: blackgrass; assay: Test B pre/postemergence blackgrass; type: in vivo, Alopecurus myosuroides
# Procedure, shortened: as §1
# [3] = test system: surinam grass; assay: Test B pre/postemergence surinam grass; type: in vivo, Brachiaria decumbens
# Procedure, shortened: as §1
# [4] = test system: cocklebur; assay: Test B pre/postemergence cocklebur; type: in vivo, Xanthium strumarium
# Procedure, shortened: as §1
# [5] = test system: corn; assay: Test B pre/postemergence corn; type: in vivo, Zea mays
# Procedure, shortened: as §1
# [6] = test system: crabgrass; assay: Test B pre/postemergence crabgrass; type: in vivo, Digitaria sanguinalis
# Procedure, shortened: as §1
# [7] = test system: rape; assay: Test B pre/postemergence rape; type: in vivo, Brassica napus
# Procedure, shortened: as §1
# [8] = test system: soybean; assay: Test B pre/postemergence soybean; type: in vivo, Glycine max
# Procedure, shortened: as §1
# [9] = test system: sugar beet; assay: Test B pre/postemergence sugar beet; type: in vivo, Beta vulgaris
# Procedure, shortened: as §1
# [10] = test system: velvetleaf; assay: Test B pre/postemergence velvetleaf; type: in vivo, Abutilon theophrasti
# Procedure, shortened: as §1
# [11] = test system: wheat; assay: Test B pre/postemergence wheat; type: in vivo, Triticum aestivum
# Procedure, shortened: as §1
# [12] = test system: wild oat; assay: Test B pre/postemergence wild oat; type: in vivo, Avena fatua
# Procedure, shortened: as §1
# [13] = test system: purple nutsedge; assay: Test B pre/postemergence purple nutsedge; type: in vivo, Cyperus rotundus
# Procedure, shortened: as §1
# [14] = test system: rice; assay: Test B flood test rice; type: in vivo, Oryza sativa
# Procedure, shortened: (§2)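 Read-out is a visual response score from 0 (no effect) to 10 (complete control), assigned by comparison with untreated controls. Treatment was applied at the 2-leaf stage, and plants stayed in the greenhouse for twelve to sixteen days before scoring.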
# [15] = test system: smallflower flatsedge; assay: Test B flood test smallflower flatsedge; type: in vivo, Cyperus difformis
# Procedure, shortened: as §2
# [16] = test system: duck salad; assay: Test B flood test duck salad; type: in vivo, Heteranthera limosa
# Procedure, shortened: as §2
# [17] = test system: bamyardgrass; assay: Test B flood test barnyardgrass; type: in vivo, Echinochloa crus-galli
# Procedure, shortened: as §2
# [18] = Preemergence, Rate 62 g/ha, scale of 0 to 10 where 0 is no effect and 10 is complete control
# [19] = Preemergence, Rate 250 g/ha, scale of 0 to 10 where 0 is no effect and 10 is complete control
# [20] = Preemergence, Rate 500 g/ha, scale of 0 to 10 where 0 is no effect and 10 is complete control
# [21] = Rate 62 g/ha, Postemergence, scale of 0 to 10 where 0 is no effect and 10 is complete control
# [22] = Rate 125 g/ha, Postemergence, scale 0 to 10
# [23] = Rate 125 g/ha, Preemergence, scale of 0 to 10 where 0 is no effect and 10 is complete control
# [24] = Rate 500 g/ha, Postemergence, scale 0 to 10, 0 no effect, 10 complete control
# [25] = Rate 62 g/ha, headed Pre-emergence (flood test species), scale 0 to 10 (0 no effect, 10 complete control)
# [26] = Rate 125 g/ha, Pre-emergence, flood test species, scale 0 to 10 where 0 is no effect and 10 is complete control
# [27] = Rate 250 g/ha, Pre-emergence, flood-test species, scale 0 to 10, 0 is no effect, 10 is complete control
# [28] = Rate 500 g/ha, Pre-emergence, flood test species, scale 0 to 10 (0 no effect, 10 complete control)
structure (smiles),measurement,setting,value
CCC(C)N(C(=O)n1oc(=O)n(-c2ccccc2C)c1=O)c1ccc(F)cc1 (stereo not drawn) [Compound 239],Bedstraw plant response rating,[1]; [18],0
same,Bedstraw plant response rating,[1]; [19],0
same,"Plant response rating, Bedstraw",[1]; [20],0
same,Bedstraw plant response rating,[1]; [21],0
same,Bedstraw plant response rating,[1]; [22],3
same,Bedstraw plant response rating,[1]; [23],0
same,"Plant response rating (0 to 10; 0 is no effect, 10 is complete control), Bedstraw","[1]; Rate 250 g/ha, Postemergence",3
same,Bedstraw plant response rating,[1]; [24],3
same,Blackgrass plant response rating,[2]; [18],0
same,Blackgrass plant response rating,[2]; [19],4
same,"Plant response rating, Blackgrass",[2]; [20],4
same,Blackgrass plant response rating,[2]; [21],0
same,Blackgrass plant response rating,[2]; [22],0
same,Blackgrass plant response rating,[2]; [23],3
same,"Plant response rating (0 to 10; 0 is no effect, 10 is complete control), Blackgrass","[2]; Rate 250 g/ha, Postemergence",2
same,Blackgrass plant response rating,[2]; [24],3
same,B. signalgrass plant response rating,[3]; [18],0
same,B. signalgrass plant response rating,"[3]; Preemergence, Rate 250 g/ha, scale 0 to 10, 0 is no effect, 10 is complete control",4
same,"Plant response rating, B. signalgrass",[3]; [20],5
same,B. signalgrass plant response rating,[3]; [21],0
same,B. signalgrass plant response rating,"[3]; Rate 125 g/ha, Postemergence, scale 0 (no effect) to 10 (complete control)",0
same,B. signalgrass plant response rating,[3]; [23],0
same,"Plant response rating (0 to 10; 0 is no effect, 10 is complete control), B. signalgrass","[3]; Rate 250 g/ha, Postemergence",0
same,B. signalgrass plant response rating,[3]; [24],0
same,Cocklebur plant response rating,[4]; [18],0
same,Cocklebur plant response rating,[4]; [19],0
same,"Plant response rating, Cocklebur",[4]; [20],0
same,Cocklebur plant response rating,[4]; [21],0
same,Cocklebur plant response rating,[4]; [22],1
same,Cocklebur plant response rating,[4]; [23],0
same,"Plant response rating (0 to 10; 0 is no effect, 10 is complete control), Cocklebur","[4]; Rate 250 g/ha, Postemergence",1
same,Cocklebur plant response rating,[4]; [24],1
same,Corn plant response rating,[5]; [18],0
same,Corn plant response rating,[5]; [19],0
same,"Plant response rating, Corn",[5]; [20],0
same,Corn plant response rating,[5]; [21],0
same,Corn plant response rating,[5]; [22],0
same,Corn plant response rating,[5]; [23],0
same,"Plant response rating (0 to 10; 0 is no effect, 10 is complete control), Corn","[5]; Rate 250 g/ha, Postemergence",0
same,Corn plant response rating,[5]; [24],0
same,Crabgrass plant response rating,[6]; [19],10
same,"Plant response rating, Crabgrass",[6]; [20],10
same,Crabgrass plant response rating,[6]; [21],0
same,Crabgrass plant response rating,[6]; [23],7
same,"Plant response rating (0 to 10; 0 is no effect, 10 is complete control), Crabgrass","[6]; Rate 250 g/ha, Postemergence",2
same,Crabgrass plant response rating,[6]; [24],6
same,Rape plant response rating,[7]; [18],0
same,Rape plant response rating,[7]; [19],0
same,"Plant response rating, Rape",[7]; [20],0
same,Rape plant response rating,[7]; [21],0
same,Rape plant response rating,[7]; [23],0
same,"Plant response rating (0 to 10; 0 is no effect, 10 is complete control), Rape","[7]; Rate 250 g/ha, Postemergence",0
same,Rape plant response rating,[7]; [24],0
same,Soybean plant response rating,[8]; [18],0
same,Soybean plant response rating,[8]; [19],0
same,"Plant response rating, Soybean",[8]; [20],0
same,Soybean plant response rating,[8]; [21],1
same,Soybean plant response rating,[8]; [23],0
same,Soybean plant response rating,[8]; [24],3
same,Sugarbeets plant response rating,[9]; [18],0
same,Sugarbeets plant response rating,[9]; [19],0
same,"Plant response rating, Sugarbeets",[9]; [20],0
same,Sugarbeets plant response rating,[9]; [21],0
same,Sugarbeets plant response rating,[9]; [23],0
same,Sugarbeets plant response rating,[9]; [24],0
same,Velvetleaf plant response rating,[10]; [18],0
same,Velvetleaf plant response rating,[10]; [19],2
same,"Plant response rating, Velvetleaf",[10]; [20],5
same,Velvetleaf plant response rating,[10]; [21],0
same,Velvetleaf plant response rating,[10]; [23],0
same,Velvetleaf plant response rating,[10]; [24],3
same,Wheat plant response rating,[11]; [18],0
same,Wheat plant response rating,[11]; [19],0
same,"Plant response rating, Wheat",[11]; [20],2
same,Wheat plant response rating,[11]; [21],0
same,Wheat plant response rating,[11]; [23],0
same,Wheat plant response rating,[11]; [24],0
same,Wild oats plant response rating,[12]; [18],0
same,Wild oats plant response rating,[12]; [19],3
same,"Plant response rating, Wild oats",[12]; [20],3
same,Wild oats plant response rating,[12]; [21],0
same,Wild oats plant response rating,[12]; [23],0
same,Wild oats plant response rating,[12]; [24],0
same,Nutsedge plant response rating,[13]; [18],0
same,"Plant response rating, Nutsedge",[13]; [20],0
same,Nutsedge plant response rating,[13]; [21],0
same,Nutsedge plant response rating,[13]; [23],0
same,"Plant response rating (0 to 10; 0 is no effect, 10 is complete control), Nutsedge","[13]; Rate 250 g/ha, Postemergence",0
same,Nutsedge plant response rating,[13]; [24],0
same,Rice plant response rating,[14]; [25],0
same,Rice plant response rating,[14]; [26],0
same,Rice plant response rating,[14]; [27],0
same,Rice plant response rating,[14]; [28],0
same,S. Flatsedge plant response rating,[15]; [25],0
same,S. Flatsedge plant response rating,[15]; [26],0
same,S. Flatsedge plant response rating,[15]; [27],0
same,S. Flatsedge plant response rating,[15]; [28],0
same,Ducksalad plant response rating,[16]; [25],0
same,Ducksalad plant response rating,[16]; [26],0
same,Ducksalad plant response rating,[16]; [27],0
same,Ducksalad plant response rating,[16]; [28],0
same,Barnyardgrass plant response rating,[17]; [25],0
same,Barnyardgrass plant response rating,[17]; [26],0
same,Barnyardgrass plant response rating,[17]; [27],0
same,Barnyardgrass plant response rating,[17]; [28],0
